These results are taken from patent publication US20150148369A1, “CHEMICAL SUPPRESSORS OF NEUROTOXICITY IN SYNUCLEINOPATHIC DISEASES” (priority 2012, published 2015).

“And” between values parts separate entries of the source, which are not always exact repeats. Equal values may be shown once. “Also recorded” adds a separate entry of the source. Read-outs that look alike come from different tables or passages of the source.

The conditions of data set [1]: in vivo, cited from earlier work.
Data set [2] concerns polyglutamine-expanded Huntingtin protein. Particulars: cited from earlier work; for polyglutamine protein aggregation: Huntington's disease (HD) model.
Another data set concerns gap junction. Particulars: cited from earlier work.
The test system of data set [3] is primary neurons expressing human mutant aSYN A30P. In words: Primary neuronal culture, neurite morphology (Cellomics ArrayScan). The data set is classed as cell-based, Drosophila. Particulars: for neurite length and branching in images vs DMSO controls: 60 nM, FIG. 1B, 1C. The method, then: Primary cell cultures are prepared from mid-gastrula stage embryos as described previously (Sepp et al., 2008). Briefly, embryos are collected on agar media plates and dechorionated in 50% bleach for 4 min., followed by rinsing with sterile distilled water. Embryos are homogenized in Shields and Sang M3 media (Sigma) in a Dounce homogenizer, and debris are pelleted by centrifugation at 40 g for 10 min and then 5 min. Neuroblasts are pelleted by centrifugation at 380G for 10 min. Cells are resuspended at 1×10^6 cells/mL in Shields and Sang M3 media supplemented with 10 U/mL penicillin, 10 ug/mL streptomycin, and 200 ng/mL insulin, and plated on 384-well plates (Corning) at 50 uL/well. Cells are incubated at 21° C. Compound is applied 24 hrs after cells are plated. Stock compounds (15 mM) and log dilutions (10^−1, 10^−2, 10^−3, 10^−4, and 10^−5) are prepared in DMSO, then each stock is further diluted 1/10 with media, and 1 uL of this working reagent is applied to culture wells. Cultures are matured for 7 days. Cultures are fixed and stained as described previously (Halter et al., 1995), using pan-neuronal marker anti-elav (1:10, Developmental Studies Hybridoma Bank), and anti-human aSYN (1:1000, Abeam), and dopaminergic neuron marker anti-tyrosine hydroxylase (1:1000, Millipore). Cultures are imaged on a Cellomics robotic fluorescence microscope, and morphologies are quantified with Cellomics ArrayScan algorithms and statistically processed with Prism software.
Primary cell cultures were prepared from mid-gastrula stage embryos as described previously (Sepp et al., 2008). Briefly, embryos are collected on agar media plates and dechorionated in 50% bleach for 4 min., followed by rinsing with sterile distilled water. Embryos were homogenized in Shields and Sang M3 media (Sigma) in a Dounce homogenizer, and debris pelleted by centrifugation at 40 g for 10 min and then 5 min. Neuroblasts were pelleted by centrifugation at 380G for 10 min. Cells were resuspended at 1×10^6 cells/mL in Shields and Sang M3 media supplemented with 10 U/mL penicillin, 10 ug/mL streptomycin, and 200 ng/mL insulin, and plated on 384-well plates (Corning) at 50 uL/well. Cells were incubated at 21° C. Compound was applied 24 hrs after cells were plated. Stock compounds (15 mM) and log dilutions (10^−1, 10^−2, 10^−3, 10^−4, and 10^−5) were prepared in DMSO, then each stock was further diluted 1/10 with media, and 1 uL of this working reagent was applied to culture wells. Cultures were matured for 7 days. Cultures were fixed and stained as described previously (Halter et al., 1995), using pan-neuronal marker anti-GFP (1:1000, Life Technologies), and anti-human aSYN (1:1000, Abcam). Cultures were imaged on a Cellomics robotic fluorescence microscope, and morphologies are quantified with Cellomics ArrayScan algorithms and statistically processed with Prism software.

Another data set relates to aSYN expressing larvae. In words: Larval survival assay in liquid culture. Particulars: for survival: after 4 days in liquid culture, DMSO 14%, untreated 13%. Format: in vivo, Drosophila. On the procedure: Embryos are collected from transgenic strains and dispensed in 96-well plates containing liquid media culture (200 uL/well). Stock compounds (15, 15×10^−2, 15×10^−5 mM) prepared in DMSO, are diluted 1/10 with media, and then 1 uL of this working reagent is dispensed in culture wells. Percentage survival of mutant and negative control larvae are recorded on day 4 following compound administration. Data are plotted graphically.
Embryos were collected from transgenic strains and dispensed in 96-well plates containing liquid media culture (200 uL/well). Stock compounds (15, 15×10^−2, 15×10^−5 mM) prepared in DMSO, were diluted 1/10 with media, and then 1 uL of this working reagent was dispensed in culture wells. Percentage survival of mutant and negative control larvae are recorded on day 4 following compound administration. Data were plotted graphically with Prism software.

The target in the next data set is HSD1 (Mus musculus, UniProt P50172). Particulars: i.p. 20 mg/kg, every other day for 2 months; cited from earlier work.
HSD1, sequence (P50172 whole entry): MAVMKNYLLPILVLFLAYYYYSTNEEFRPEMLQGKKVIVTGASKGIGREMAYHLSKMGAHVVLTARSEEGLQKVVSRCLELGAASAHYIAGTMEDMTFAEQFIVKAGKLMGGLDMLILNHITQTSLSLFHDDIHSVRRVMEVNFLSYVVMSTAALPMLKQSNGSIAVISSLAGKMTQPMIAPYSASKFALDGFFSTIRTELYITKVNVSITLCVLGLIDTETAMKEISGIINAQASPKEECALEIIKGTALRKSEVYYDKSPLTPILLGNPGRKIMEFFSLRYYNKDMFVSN
In data set [4] the test system is human mutant aSYN (AAV1/2 A53T α-Synuclein). Description: Quantitative immunoblot of aSYN in AAV-aSYN rat model of Parkinson's disease. The data set is classed as in vivo. Particulars: 37.4 ug/h into third ventricle; for aSYN protein levels in postmortem rat brain immunoblots: TPT vs vehicle. From the text: An AAV 1/2-aSYN A53T vector delivery-based over-expression of aSYN in the rat substantia nigra was chosen to model PD synucleinopathy, since it replicates progressive nigrostriatal degeneration and basal ganglia-based motor features of PD better than existing stable transgenic models. Furthermore, time of symptom onset is far more predictable, thus reducing experimental noise. Viral vectors will be delivered as using stereotactic injection. Briefly, 20 Sprague Dawley rats (280 g, Charles River) were injected with AAV 1/2-aSYN A53T to the experimental hemisphere (right) and AAV1/2-GFP to the control hemisphere (left) using standard stereotaxic procedures and isoflurane/oxygen anesthesia. Vector (2 μL) was delivered by microinjector (Stoelting, Kiel, Wis.) at 0.2 μL/min with coordinates from Bregma: AP, −5.2 mm; ML, −2.0 mm; DV, −7.5 mm. Viral stock concentrations for both AAV1/2 GFP and AAV1/2-aSYN A53T were 1.7×10^12 gp/mL. Animals were housed in pairs at 20° C. with a 12 hr light/dark cycle with food and water ad libitum. Animals recovered were maintained with regular care for 3 weeks as viral gene expression of aSYN built to emerging pathological levels as characterized previously.
On Day 1 of Week 3, rats were fitted with osmotic mini-pumps to administer TPT to the third ventricle. Intracerebral administration was chosen to maximize the amount of drug given to the brain and minimize side effects in peripheral tissues. Using standard stereotaxic procedures, a 22-gauge guide cannula (Plastics One, Roanoake, Va.) was placed into the third ventricle (AP, −1.3 mm, ML, +0.0 mm; DV −4.6 mm with respect to bregma) of isoflurane/oxygen anesthetized rats, and anchored with dental acrylic. […]
Standard Western blot techniques are used on dissected postmortem tissues to determine if aSYN levels decrease in response to TPT treatment. […] Blots are imaged on an Odyssey Quantitative Fluorescence Imaging System. Two-tailed student's t-test is used Western blot quantifications.
For orientation: A western blot detects proteins with antibodies after separation by electrophoresis.

Data set [5] can be described thus: Pharmacokinetic analysis: mass-spec of TPT in postmortem rat brain. The data set is classed as in vivo. Particulars: osmotic pump into third ventricle, 37.4 ug/h. From the text:
On Day 1 of Week 3, rats were fitted with osmotic mini-pumps to administer TPT to the third ventricle. Intracerebral administration was chosen to maximize the amount of drug given to the brain and minimize side effects in peripheral tissues. Using standard stereotaxic procedures, a 22-gauge guide cannula (Plastics One, Roanoake, Va.) was placed into the third ventricle (AP, −1.3 mm, ML, +0.0 mm; DV −4.6 mm with respect to bregma) of isoflurane/oxygen anesthetized rats, and anchored with dental acrylic. Rats were bilaterally infused with TPT or vehicle using a mini-osmotic pulp (Alzet model 2ML2 pump, flow rate 5.0 uL/hr, Durect Corp. Cupertino) to the third ventricle, which was delivered for 2 weeks. The pumps were filled with 16.34 mM topotecan (TPT) (CPT06, Molcan Corporation) in 50 mM tartaric acid with 0.9% saline (delivered at 37.4 μg/h), or vehicle control alone. Upon cessation of drug on Day 7 of Week 4 or at some other time point, rats were sacrificed by an overdose of pentobarbital (1.0 mL of 240 mg/mL, i.p.) and exsanguinated by transcardial saline perfusion followed by 4% paraformaldehyde.
Postmortem brain samples were subjected to standard quadrupole mass […] analysis to determine brain penetration of TPT into tissue samples.

In the case of `CC1(C)[C@@H](O)CC[C@]2(C)[C@H]3C(=O)C=C4[C@@H]5C[C@@](C)(C(=O)O)CC[C@]5(C)CC[C@@]4(C)[C@]3(C)CC[C@@H]12` [18β-glycyrrhetinic acid], the “crossing of the blood-brain-barrier” value in data set [1] is listed as “do not cross the blood-brain-barrier at high enough concentrations”. In addition, the polyglutamine protein aggregation entry in data set [2] is “protect against polyglutamine protein aggregation”. Besides, the “gap junction blocking activity” value in the data set on gap junction was “have gap junction blocking activity”.

Consider `CC[C@@]1(O)C(=O)OCc2c1cc1n(c2=O)Cc2cc3cc(O)ccc3nc2-1` [camptothecin-OH, 10-hydroxy-camptothecin], for which the “neurite morphology profiles (image features) vs DMSO negative control” value in data set [3] (30 nM) is recorded as “improved neurite morphology profiles”. In data set [3] (30 nM, FIG. 1D), the “neurite outgrowth vs DMSO control” value is “improved neurite outgrowth”. For the same compound, the “total neurite length per well” value in data set [3] (30 nM, Mean±SEM, n=4, DMSO vehicle 15240±799.8 (n=18), P<0.05, FIG. 1D) is 20170±1430 um. The compound also displayed a survival in the data set with aSYN expressing larvae ('hi' dose 15 uM, n=5) of 100%. Further, the “survival compared to DMSO vehicle-treated controls” value with aSYN expressing larvae (high dose 15 uM) is on record as “improved survival”.

With `CC1(C)[C@@H](OC(=O)CCC(=O)O)CC[C@]2(C)[C@H]3C(=O)C=C4[C@@H]5C[C@@](C)(C(=O)O)CC[C@]5(C)CC[C@@]4(C)[C@]3(C)CC[C@@H]12` [carbenoxolone, (3β)-3-[(3-carboxy-propanoyl)oxy]-11-oxoolean-12-en-30-oic acid], in data set [1] (concentrations needed for gap junction block), the “crossing of the blood-brain-barrier” value is on record as “do not cross the blood-brain-barrier at high enough concentrations”. Besides, the polyglutamine protein aggregation entry in data set [2] is on record as “protect against polyglutamine protein aggregation”. The “lifespan and motor control” value in data set [2] (early dosing) was “extend Drosophila HD model lifespan and improves motor control”. Also, the “rescue of toxicity of polyglutamine-expanded Huntingtin protein” value in data set [2] (in vivo, Drosophila) is on record as “in vivo rescue of toxicity”. For the same compound, in the data set on gap junction, the “gap junction blocking activity” value is recorded as “have gap junction blocking activity”. For the same compound, the “inhibition of target enzyme HSD1” value at HSD1 was “effective at inhibiting the target enzyme HSD1”. Moreover, the “neurite morphology profiles (image features) vs DMSO negative control” value in data set [3] (30 nM) is on record as “improved neurite morphology profiles”. For the same compound, in data set [3] (30 nM, FIG. 1E), the “excessive branching vs DMSO vehicle controls” value was “reduces the excessive branching phenotype; also recorded: reduced excessive branching”. In addition, the “total branches per well” value in data set [3] (30 nM, Mean±SEM, n=4, DMSO vehicle 4.416±0.2622 (n=16), P<0.05, FIG. 1E) is 3.198±0.1825. The “neurite length and branching in images vs DMSO controls” value in data set [3] was “longer neurites and reduced neuritic branching”.

`C[C@@H](CN1CC(=O)NC(=O)C1)N1CC(=O)NC(=O)C1` [dexrazoxane, Dexrazoxane]: the survival in the data set on aSYN expressing larvae ('med' dose 0.15 uM, n=9) stood at 75%. In addition, the “survival compared to DMSO vehicle-treated controls” value in the data set on aSYN expressing larvae (medium dose 0.15 uM) is “improved survival”.

`CC[C@@]1(O)C(=O)OCc2c1cc1n(c2=O)Cc2cc3c(CN(C)C)c(O)ccc3nc2-1` [topotecan]: the “aSYN protein levels in postmortem rat brain immunoblots” value is listed as “reduced aSYN protein levels; also recorded: inverse relationship” in data set [4] and “reduced in the TPT treatment with a dose-dependent trend” in data set [4] (listed as TPT). The “reduction in aSYN normalized to beta-Actin vs vehicle control” value in data set [4] (three rats, average 2725 ng TPT/g tissue) is given as ~2 fold. Further, the “average TPT brain level of three rats” value in data set [5] turned out to be 2725 ng TPT/g tissue. The “TPT level in cortex, single rats” value in data set [5] (n=3 rats, listed as TPT) is 6809 ng TPT/g tissue and 967 ng TPT/g tissue and 399 ng TPT/g tissue. Also, the “neurite outgrowth vs DMSO control” value in data set [3] (30 nM, FIG. 1D) is recorded as “improved neurite outgrowth”. Moreover, the “neurite length and branching in images vs DMSO controls” value in data set [3] is “longer neurites and reduced neuritic branching”.
